Measurements: patent US20200247897A1, “THERAPEUTIC ANTIBODIES BASED ON MUTATED IGG HEXAMERS” (GENMAB B.V., priority 2017, published 2020)
Read-outs that look alike come from different tables or passages of the source.

What was measured:
LS-411N = assay: Drug combination screen (ATPlite, Synergy Score), LS-411N; assay type: cell-based, human
HCT 116 = assay: Drug combination screen (ATPlite, Synergy Score), HCT 116
SNU-C2B = assay: Drug combination screen (ATPlite, Synergy Score), SNU-C2B
SW480 = assay: Drug combination screen (ATPlite, Synergy Score), SW480; assay type: cell-based, human
DLD-1 = assay: Drug combination screen (ATPlite, Synergy Score), DLD-1
[1] = compound in combination with IgG1-hDR5-01-G56T-E430G + IgG1-hDR5-05-E430G, LS-411N, 72 hour ATPlite, 6x6 matrix
[2] = compound in combination with IgG1-hDR5-01-G56T-E430G + IgG1-hDR5-05-E430G, HCT 116, 120 hour ATPlite, 6x6 matrix
[3] = compound in combination with IgG1-hDR5-01-G56T-E430G + IgG1-hDR5-05-E430G, SNU-C2B, 72 hour ATPlite, 6x6 matrix
[4] = compound in combination with IgG1-hDR5-01-G56T-E430G + IgG1-hDR5-05-E430G, SW480, 72 hour ATPlite, 6x6 matrix
[5] = compound in combination with IgG1-hDR5-01-G56T-E430G + IgG1-hDR5-05-E430G, DLD-1, 120 hour ATPlite, 6x6 matrix

Row | Compound | Synergy Score LS-411N (LS-411N; [1]) | Synergy Score HCT-116 (HCT 116; [2]) | Synergy Score SNU-C2B (SNU-C2B; [3]) | Synergy Score SW480 (SW480; [4]) | Synergy Score DLD-1 (DLD-1; [5]) | Synergy Score LS-411N (LS-411N) | Synergy Score HCT-116 (HCT 116) | Synergy Score SNU-C2B (SNU-C2B) | Synergy Score SW480 (SW480) | Synergy Score DLD-1 (DLD-1)
1 | O=C(CCCCCCC(=O)Nc1ccccc1)NO | 4.4 | 2.5 | 11 | 7.3 | 4.4 |  |  |  |  | 
2 | CC[C@@]1(O)C(=O)OCc2c1cc1n(c2=O)Cc2cc3cc(O)ccc3nc2-1 [10-Hydroxycamptothecin] |  |  |  |  |  | 16.9 | 9.6 | 12.4 | 30.1 | 21.9
3 | CC1(C)CCC(CN2CCN(c3ccc(C(=O)NS(=O)(=O)c4ccc(NCC5CCOCC5)c([N+](=O)[O-])c4)c(Oc4cnc5[nH]ccc5c4)c3)CC2)=C(c2ccc(Cl)cc2)C1 [ABT-199] | 0.1 | 0 | 0 | 0 | 0 |  |  |  |  | 
4 | CC1(C)CCC(c2ccc(Cl)cc2)=C(CN2CCN(c3ccc(C(=O)NS(=O)(=O)c4ccc(N[C@H](CCN5CCOCC5)CSc5ccccc5)c(S(=O)(=O)C(F)(F)F)c4)cc3)CC2)C1 [ABT-263] | 7.6 | 0 | 1 | 8 | 3.4 |  |  |  |  | 
5 | CN(C)CC[C@H](CSc1ccccc1)Nc1ccc(S(=O)(=O)NC(=O)c2ccc(N3CCN(Cc4ccccc4-c4ccc(Cl)cc4)CC3)cc2)cc1[N+](=O)[O-] [ABT-737] | 4.2 | 0 | 1.1 | 7.5 | 1.5 |  |  |  |  | 
6 | C[C@]1(c2nc3c(C(N)=O)cccc3[nH]2)CCCN1 [ABT-888] | 0.7 |  | 0.1 | 0 |  |  |  |  |  | 
7 | Cc1ccc(C(=O)Nc2ccc(CN3CCN(C)CC3)c(C(F)(F)F)c2)cc1C#Cc1cnc2cccnn12 [AP24534] | 2.6 | 1.4 | 1.8 | 3.7 | 4.3 |  |  |  |  | 
8 | C=CC(=O)Nc1ccc2ncnc(Nc3ccc(OCc4cccc(F)c4)c(Cl)c3)c2c1 [AST-1306] | 1.8 | 0.1 | 0.7 | 0.9 | 0.3 |  |  |  |  | 
9 | Cn1cnc2c(F)c(Nc3ccc(Br)cc3Cl)c(C(=O)NOCCO)cc21 [AZD6244] | 0.7 | 2.7 | 0.6 | 11.7 | 1.5 |  |  |  |  | 
10 | COc1ccc(-c2ccc3c(N4CCOC[C@@H]4C)nc(N4CCOC[C@@H]4C)nc3n2)cc1CO [AZD 8055] | 10 | 1.7 | 12.2 | 3.9 | 3 |  |  |  |  | 
11 | Cn1c(=O)n(-c2ccc(C(C)(C)C#N)cc2)c2c3cc(-c4cnc5ccccc5c4)ccc3ncc21 [BEZ235] | 1.1 | 1.4 | 5.4 | 3.2 | 2.4 |  |  |  |  | 
12 | CCN1CCN(c2ccc(Nc3cc(N(C)C(=O)Nc4c(Cl)c(OC)cc(OC)c4Cl)ncn3)cc2)CC1 [BGJ398] | 1.4 | 0.1 | 0.8 | 1.6 | 1 |  |  |  |  | 
13 | C[C@@]1(C(=O)Nc2ccc(F)nc2)CCCN1c1nc(Nc2cc(C3CC3)n[nH]2)c2cccn2n1 [BMS-754807] | 10.8 | 2.1 | 1.3 | 5.9 | 11.3 |  |  |  |  | 
14 | C[C@@H](Oc1cc(-c2cnn(C3CCNCC3)c2)cnc1N)c1c(Cl)ccc(F)c1Cl [Crizotinib] |  | 7.7 | 5.4 | 8.9 | 13.4 |  |  |  |  | 
15 | TW-37 | 29.9 | 5.4 |  | 10.5 |  |  |  |  |  | 
